# “And” between values parts separate entries of the source, which are not always exact repeats. Equal values may be shown once. The source made the active and inactive calls.
# Legend:
# Cytochrome P450 2C9 = Cytochrome P450 2C9 (Homo sapiens, UniProt P11712)
# Cytochrome P450 1A2 = molecular target: T1, Cytochrome P450 1A2 (Homo sapiens, UniProt P05177);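 also: PubChem cytochrome P450 panel assay, CYP1A2 panel member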
# T1 sequence (P05177 whole entry): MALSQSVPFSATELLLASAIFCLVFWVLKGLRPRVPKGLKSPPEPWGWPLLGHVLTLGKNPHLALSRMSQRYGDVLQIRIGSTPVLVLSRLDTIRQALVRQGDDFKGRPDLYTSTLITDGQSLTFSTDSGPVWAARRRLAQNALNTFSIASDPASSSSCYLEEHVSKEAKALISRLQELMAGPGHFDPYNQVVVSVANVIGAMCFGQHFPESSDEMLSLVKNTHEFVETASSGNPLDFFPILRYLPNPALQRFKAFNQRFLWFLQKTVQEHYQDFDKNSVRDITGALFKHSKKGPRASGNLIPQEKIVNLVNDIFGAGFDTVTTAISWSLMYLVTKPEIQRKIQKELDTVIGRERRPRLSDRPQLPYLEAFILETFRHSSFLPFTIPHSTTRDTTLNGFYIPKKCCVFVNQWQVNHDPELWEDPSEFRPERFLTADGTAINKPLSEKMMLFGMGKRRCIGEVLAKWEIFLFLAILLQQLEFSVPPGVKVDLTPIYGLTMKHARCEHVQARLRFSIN
# Cytochrome P450 2C19 = Cytochrome P450 2C19 (Homo sapiens, UniProt P33261); test: Cytochrome panel assay with activity outcomes. Panel member name: p450-cyp2c19 Compounds with AC50 equal or less than 10 uM are considered active; format: functional
# Cytochrome P450 2C19, sequence (P33261 whole entry): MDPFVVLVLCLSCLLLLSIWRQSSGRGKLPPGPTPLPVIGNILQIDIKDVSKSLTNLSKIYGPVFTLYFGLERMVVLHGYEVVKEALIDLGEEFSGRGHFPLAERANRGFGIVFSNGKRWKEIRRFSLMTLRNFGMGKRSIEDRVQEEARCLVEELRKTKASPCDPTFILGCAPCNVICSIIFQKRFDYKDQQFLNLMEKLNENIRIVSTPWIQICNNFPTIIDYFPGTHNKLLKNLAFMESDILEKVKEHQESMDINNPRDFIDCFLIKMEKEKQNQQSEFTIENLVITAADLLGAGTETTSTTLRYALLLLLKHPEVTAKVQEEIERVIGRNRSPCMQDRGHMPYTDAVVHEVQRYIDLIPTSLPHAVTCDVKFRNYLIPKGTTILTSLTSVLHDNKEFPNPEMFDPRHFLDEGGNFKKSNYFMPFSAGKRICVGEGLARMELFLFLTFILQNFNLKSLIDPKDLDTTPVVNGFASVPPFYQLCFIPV
# [1] = molecular target: T2, Heat shock factor protein 1 (Mus musculus, UniProt P38532); test: decrease of HSF1-responsive luciferase luminescence – cell-based, NIH3T3, dose retest, confirmation (AID 2382); format: functional;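 also: NIH3T3 fibroblasts with HSF1-driven luciferase reporter stressed by proteasome inhibitor MG132; luminescence from HSF1-driven luciferase expression after 8 hours of MG132 stress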
# T2 sequence (P38532 whole entry): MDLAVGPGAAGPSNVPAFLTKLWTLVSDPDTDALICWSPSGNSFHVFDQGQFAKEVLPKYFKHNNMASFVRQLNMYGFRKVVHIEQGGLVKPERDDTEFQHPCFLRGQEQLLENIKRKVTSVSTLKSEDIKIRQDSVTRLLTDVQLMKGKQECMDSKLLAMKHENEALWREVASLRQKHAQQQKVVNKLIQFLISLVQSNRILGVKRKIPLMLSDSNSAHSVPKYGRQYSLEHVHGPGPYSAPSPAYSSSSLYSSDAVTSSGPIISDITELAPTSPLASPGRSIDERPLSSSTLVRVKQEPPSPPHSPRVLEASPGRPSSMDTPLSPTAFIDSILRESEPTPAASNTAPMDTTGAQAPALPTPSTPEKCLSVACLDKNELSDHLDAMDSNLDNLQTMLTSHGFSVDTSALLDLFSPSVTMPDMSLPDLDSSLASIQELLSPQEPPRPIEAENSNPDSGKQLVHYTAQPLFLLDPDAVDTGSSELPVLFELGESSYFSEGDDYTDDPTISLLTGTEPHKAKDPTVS
# Cytochrome P450 2D6 = Cytochrome P450 2D6 (Homo sapiens, UniProt P10635);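 also: CYP2D6 member of a cytochrome P450 panel assay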
# Cytochrome P450 2D6, sequence (P10635 whole entry): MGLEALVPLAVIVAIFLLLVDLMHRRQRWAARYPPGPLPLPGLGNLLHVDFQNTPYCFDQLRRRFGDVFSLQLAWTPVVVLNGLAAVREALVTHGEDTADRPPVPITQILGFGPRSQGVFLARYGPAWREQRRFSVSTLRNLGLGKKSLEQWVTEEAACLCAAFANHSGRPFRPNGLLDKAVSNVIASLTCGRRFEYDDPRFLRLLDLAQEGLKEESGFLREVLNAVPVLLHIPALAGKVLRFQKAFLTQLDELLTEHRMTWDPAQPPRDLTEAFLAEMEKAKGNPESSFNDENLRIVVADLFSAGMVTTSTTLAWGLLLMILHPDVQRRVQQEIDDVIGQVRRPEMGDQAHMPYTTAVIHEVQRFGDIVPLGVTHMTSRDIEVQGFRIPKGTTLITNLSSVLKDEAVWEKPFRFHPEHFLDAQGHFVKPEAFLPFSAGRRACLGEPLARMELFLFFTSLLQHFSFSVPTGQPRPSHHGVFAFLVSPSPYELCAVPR
# Cytochrome P450 3A4 = Cytochrome P450 3A4 (Homo sapiens, UniProt P08684);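 also: CYP3A4 tested as one member of a cytochrome P450 panel screen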
# Cytochrome P450 3A4, sequence (P08684 whole entry): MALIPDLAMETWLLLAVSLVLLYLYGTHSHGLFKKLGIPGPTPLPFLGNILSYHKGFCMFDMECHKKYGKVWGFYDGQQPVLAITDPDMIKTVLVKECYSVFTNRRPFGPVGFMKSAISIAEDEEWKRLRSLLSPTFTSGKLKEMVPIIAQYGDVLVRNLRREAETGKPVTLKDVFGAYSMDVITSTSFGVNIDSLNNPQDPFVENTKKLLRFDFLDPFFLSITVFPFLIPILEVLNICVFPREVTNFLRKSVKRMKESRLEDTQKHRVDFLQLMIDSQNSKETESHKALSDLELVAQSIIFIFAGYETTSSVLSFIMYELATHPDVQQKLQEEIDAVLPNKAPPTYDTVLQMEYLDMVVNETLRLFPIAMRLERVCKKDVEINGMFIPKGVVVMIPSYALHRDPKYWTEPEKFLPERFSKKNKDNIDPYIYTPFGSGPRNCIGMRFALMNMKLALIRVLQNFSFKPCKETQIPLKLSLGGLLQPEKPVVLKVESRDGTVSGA
# [2] = Trypanosoma cruzi growth suppression in host cells – NIH3T3 host cells, beta-gal luminescence, confirmation (AID 2044); format: functional, cell-based;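 also: intracellular parasites grown in NIH/3T3 mouse fibroblasts as host cells; luminescent beta-galactosidase reporter signal from transgenic T. cruzi replicating inside host cells; inhibitors lower the luminescence signal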
# [3] = NIH3T3 cell viability loss – ATP luminescence, mouse fibroblasts, counter-screen, dose response (AID 2010); format: functional, cell-based;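 also: cells exposed to compound for about 90 hours before reading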
# Cytochrome P450 2C9, sequence (P11712 whole entry): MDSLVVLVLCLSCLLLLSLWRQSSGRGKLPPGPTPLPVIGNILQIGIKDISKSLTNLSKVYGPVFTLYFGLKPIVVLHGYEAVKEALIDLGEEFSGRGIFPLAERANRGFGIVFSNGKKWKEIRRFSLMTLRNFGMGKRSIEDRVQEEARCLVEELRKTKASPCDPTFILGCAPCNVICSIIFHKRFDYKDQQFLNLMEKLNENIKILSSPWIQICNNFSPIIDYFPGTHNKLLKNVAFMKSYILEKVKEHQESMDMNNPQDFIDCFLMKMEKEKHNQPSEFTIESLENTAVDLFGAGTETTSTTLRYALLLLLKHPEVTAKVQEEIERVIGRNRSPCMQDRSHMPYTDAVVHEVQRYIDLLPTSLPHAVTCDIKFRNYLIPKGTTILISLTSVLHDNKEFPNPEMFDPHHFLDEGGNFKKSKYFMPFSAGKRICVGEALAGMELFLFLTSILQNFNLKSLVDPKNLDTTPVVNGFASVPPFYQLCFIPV
smiles,measurement,setting,value
NC(=O)COc1c(F)cc(SCCNS(=O)(=O)c2ccccc2)cc1F,AC50,Cytochrome P450 2C9,31.6 µM (inconclusive)
same,AC50,Cytochrome P450 1A2,31.6 µM (inconclusive)
CNC(=O)COC(=O)c1cc2c(C)nn(-c3ccc(F)cc3)c2s1,AC50,Cytochrome P450 2C9,1.12 µM (inconclusive)
same,AC50,Cytochrome P450 2C19; read-out: AC50,39.8 µM (inconclusive)
CCOC(=O)C1CCCN(CCC(=O)Nc2cc(OC)ccc2OC)C1 (stereo not drawn),EC50,[1],> 195 µM (not active)
CN=C(S)N(CCc1c(C)[nH]c2ccc(F)cc12)Cc1cccnc1,EC50,[1],> 195 µM (not active)
C=CCC1(C(=O)NCCO)CCN(C(=O)OC(C)(C)C)CC1,EC50,[1],> 195 µM (not active)
CCCN[C@@H](C)C(=O)Nc1c(C)csc1C(=O)OC,AC50,Cytochrome P450 1A2,12.6 µM (inconclusive)
CC1CN(C(=S)NC(=O)c2ccc([N+](=O)[O-])cc2)CC(C)O1 (stereo not drawn),AC50,Cytochrome P450 1A2,12.6 µM (inconclusive)
same,AC50,Cytochrome P450 2C19; read-out: AC50,31.6 µM (inconclusive)
COc1ccc(N2CCN(C(CNC(=O)C(=O)NCc3ccncc3)c3ccco3)CC2)cc1 (stereo not drawn),EC50,[1],> 195 µM (not active)
Cc1ccc(-c2cc(-c3nnc(SCC(=O)NC(C)C(C)C)n3N)c3ccccc3n2)cc1 (stereo not drawn),AC50,Cytochrome P450 1A2,31.6 µM (inconclusive)
same,AC50,Cytochrome P450 2C19; read-out: AC50,15.8 µM (inconclusive)
CCOC(=O)c1cc(C(=O)OCC)cc(-n2cc(O)c(C(=O)OCC)n2)c1,AC50,Cytochrome P450 2D6,3.16 µM (inconclusive)
NC(=O)c1ccc[n+](CC(=O)OCCC23CC4CC(CC(C4)C2)C3)c1,AC50,Cytochrome P450 2D6,39.8 µM (inconclusive)
same,EC50,[1],> 195 µM (not active)
CCCn1c(SCC(=O)c2c(C)[nH]c(C)c2C(=O)OCC)nc2ccccc21,EC50,[1],> 195 µM (not active)
COc1cc([N+](=O)[O-])ccc1NC(=O)CCCOc1cccc(C)c1,AC50,Cytochrome P450 2D6,15.8 µM (inconclusive)
CS(=O)(=O)Nc1cccc(-c2cncnc2Nc2ccc(F)cc2)c1,AC50,Cytochrome P450 2D6,20 µM (inconclusive)
O=C(CNS(=O)(=O)c1ccc(Br)s1)N1CCC(N2CCCCC2)CC1,AC50,Cytochrome P450 2C19; read-out: AC50,20 µM (inconclusive)
COc1ccc(CC(C)Nc2cccc(SC)c2)cc1 (stereo not drawn),EC50,[1],> 195 µM (not active)
COc1cccc(C(c2sc3nc(C)nn3c2O)N2CCN(C(=O)c3ccco3)CC2)c1 (stereo not drawn),EC50,[1],> 195 µM (not active)
O=C(NCCc1c[nH]c2ccccc12)[C@H]1C[C@@H]1[C@H](NP(=O)(c1ccccc1)c1ccccc1)c1ccccc1,AC50,Cytochrome P450 1A2,12.6 µM (inconclusive)
COc1ccc2c(c1)CCc1c(C(=O)N3CCCCCC3)noc1-2,AC50,Cytochrome P450 2D6,15.8 µM (inconclusive)
same,AC50,Cytochrome P450 2C9,25.1 µM (inconclusive)
CC(C)n1nnnc1SCC(=O)NCCc1ccccc1,AC50,Cytochrome P450 2D6,25.1 µM (inconclusive)
COc1ccc2[nH]cc(CCNc3ncncc3-c3ccc(C(=O)N(C)C)cc3)c2c1,AC50,Cytochrome P450 1A2,20 µM (inconclusive)
c1ccc(Nc2nc(-c3ccc4c(c3)OCO4)nc3ccccc23)cc1,AC50,Cytochrome P450 2D6,39.8 µM (inconclusive)
CCC(C)NCc1ccc(C(=O)OC)o1 (stereo not drawn),AC50,Cytochrome P450 2D6,14.1 µM (inconclusive)
same,AC50,Cytochrome P450 2C9,0.447 µM (inconclusive)
same,AC50,Cytochrome P450 2C19; read-out: AC50,15.8 µM (inconclusive)
COC(=O)[C@H]1C(=O)[C@H](C(=O)OC)[C@@H]2CC[C@H]1N2C,AC50,Cytochrome P450 1A2,0.794 µM (inconclusive)
CCC(c1nnnn1CCOC)N1CCN(C(=O)c2ccco2)CC1 (stereo not drawn),AC50,Cytochrome P450 3A4,28.2 µM (inconclusive)
O=C(OCn1nnc2ccccc2c1=O)c1cc(-c2ccccc2)nc2ccccc12,EC50,[1],> 195 µM (not active)
O=C1CC(N2CCCCC2)C(=O)N1c1ccccc1 (stereo not drawn),EC50,[1],> 195 µM (not active)
COC(=O)[C@@]1(Cc2ccccc2)[C@H]2c3cc(C(=O)N(C)C)n(CCN4CNCC4=O)c3C[C@H]2CN1C(=O)c1ccccc1,AC50,Cytochrome P450 2C9,25.1 µM (inconclusive)
same,AC50,Cytochrome P450 1A2,5.01 µM (inconclusive)
same,AC50,Cytochrome P450 2C19; read-out: AC50,31.6 µM (inconclusive)
CNc1nc(-c2ccccc2C(F)(F)F)nc2ccccc12,AC50,Cytochrome P450 2D6,20 µM (inconclusive)
same,AC50,Cytochrome P450 2C19; read-out: AC50,31.6 µM (inconclusive)
CCNc1ncc2nc(-c3cc(F)cc(F)c3)c(=O)n(CCOC)c2n1,AC50,Cytochrome P450 3A4,7.94 µM (inconclusive)
CCOC(=O)c1sc(NC(=O)CSc2nnc(-c3ccccc3)[nH]2)c(C#N)c1C,EC50,[1],> 195 µM (not active)
COc1ccc(Br)cc1CN1CCN(CCO)CC1,EC50,[1],> 195 µM (not active)
CN(C(=O)c1ccc(OC2CCN(Cc3ccccn3)CC2)cc1)C1CCCCC1,EC50,[1],> 195 µM (not active)
COc1ccc(O[C@H]2C=C[C@@H](c3ccccc3)O[C@H]2COC(=O)CC/C(C)=N\O[C@@H](C)c2cn([C@H]3COC[C@H]3O)nn2)cc1,AC50,Cytochrome P450 2D6,7.94 µM (inconclusive)
O=C(c1cnccn1)N1CCC2(CCCN(C(c3ccccc3)c3ccccc3)C2)CC1,AC50,Cytochrome P450 1A2,20 µM (inconclusive)
same,AC50,Cytochrome P450 2C19; read-out: AC50,25.1 µM (inconclusive)
Cc1ccccc1NS(=O)(=O)c1cc(C(=O)Nc2cccc(N(C)S(C)(=O)=O)c2)ccc1C,AC50,Cytochrome P450 2D6,17.8 µM (inconclusive)
same,AC50,Cytochrome P450 1A2,17.8 µM (inconclusive)
CCOC(=O)c1ccc(Oc2nc(NC)nc(Nc3ccccc3)n2)cc1,EC50,[1],> 195 µM (not active)
COc1ccc(-n2nnnc2-c2cn(C)nc2C(F)(F)F)cc1,AC50,Cytochrome P450 2C9,28.2 µM (inconclusive)
same,AC50,Cytochrome P450 1A2,25.1 µM (inconclusive)
O=C(NNC(=O)c1cccnc1)Nc1cccc2ccccc12,AC50,Cytochrome P450 1A2,14.1 µM (inconclusive)
same,AC50,Cytochrome P450 2C19; read-out: AC50,28.2 µM (inconclusive)
Cc1ccccc1NC(=O)CSc1nc(N2CCCCC2)nc(N2CCCCC2)n1,AC50,Cytochrome P450 2C9,0.00891 µM (inconclusive)
same,AC50,Cytochrome P450 1A2,3.55 µM (inconclusive)
CCN=C(Nc1cccc(F)c1)SC1CC(=O)N(c2ccc(OC)cc2)C1=O (stereo not drawn),AC50,Cytochrome P450 2D6,14.1 µM (inconclusive)
CC(=O)c1c(O)cc(=O)n(-c2ccccc2)c1-c1ccc(C)cc1,AC50,Cytochrome P450 2D6,0.00501 µM (inconclusive)
same,AC50,Cytochrome P450 2C9,15.8 µM (inconclusive)
CCNc1ncc2nc(C)c(=O)n(Cc3cccc(OC)c3)c2n1,AC50,Cytochrome P450 2D6,25.1 µM (inconclusive)
CO[C@H]1COC(=O)[C@@H](C)COC(=O)[C@@H](COCc2ccccc2)NC(=O)C/C=C\[C@H]1C,AC50,Cytochrome P450 3A4,3.98 µM (inconclusive)
c1cc(CN2CC3(CCNCC3)C2)ccn1,AC50,Cytochrome P450 2D6,39.8 µM (inconclusive)
CCCCC1C(=O)NC(=S)NC1=O,EC50,[1],> 195 µM (not active)
Cc1cccc(NS(=O)(=O)c2cc3c(cc2C)NC(=O)CO3)c1,EC50,[1],> 195 µM (not active)
Cc1ccc(NC(=S)N2CCN(CCN3C(=O)c4cccc5cccc(c45)C3=O)CC2)cc1,EC50,[2],0.855 µM (active)
same,EC50,[3],> 60 µM (not active)
same,AC50,Cytochrome P450 1A2,20 µM (inconclusive)
same,AC50,Cytochrome P450 2C19; read-out: AC50,15.8 µM (inconclusive)
COCCCNC(=O)CC(NS(=O)(=O)c1ccc(C)cc1)c1ccc(OC)cc1 (stereo not drawn),EC50,[1],> 195 µM (not active)
O=[N+]([O-])c1ccc(NN=C2c3ccccc3Cc3ccccc32)c([N+](=O)[O-])c1,AC50,Cytochrome P450 1A2,0.794 µM (inconclusive)
Cc1nnc(NC(=O)CCC(=O)NCc2cccs2)s1,AC50,Cytochrome P450 2C9,31.6 µM (inconclusive)
same,AC50,Cytochrome P450 2C19; read-out: AC50,22.4 µM (inconclusive)
CCc1c(C(=O)NCc2ccc3c(c2)OCO3)[nH]c(C)c1C(C)=O,AC50,Cytochrome P450 2D6,20 µM (inconclusive)
same,AC50,Cytochrome P450 2C9,10 µM (inconclusive)
CC(C)CC(=O)N1CCC(O)(CS(=O)(=O)Cc2ccc(Cl)cc2)CC1,AC50,Cytochrome P450 3A4,8.91 µM (inconclusive)
CC1=C/C(=N/O)C([C@H]2C=C(C)CC(C)(C)[C@@H]2O)C(C)(C)C1 (stereo partly drawn),AC50,Cytochrome P450 3A4,5.01 µM (inconclusive)
O=C(N/N=C\c1c[nH]nc1-c1ccccc1)c1cccs1,EC50,[1],> 195 µM (not active)
CN(C)c1nc(NCc2ccccc2)nc(N/N=C/c2ccc(Cl)cc2Cl)n1,AC50,Cytochrome P450 2C19; read-out: AC50,1 µM (inconclusive)
NC(=S)N/N=C1\CC(n2nnnc2-c2ccccc2Cl)C2COC1O2 (stereo not drawn),EC50,[1],> 195 µM (not active)
C/C(Cn1nc([N+](=O)[O-])cc1C)=N\NC(=O)c1ccc(O)cc1O,AC50,Cytochrome P450 1A2,25.1 µM (inconclusive)
same,AC50,Cytochrome P450 2C19; read-out: AC50,7.08 µM (inconclusive)
COc1ccc(C(=O)Nc2cccc(/C(C)=N/NC(=O)c3ccc([N+](=O)[O-])cc3)c2)cc1OC,AC50,Cytochrome P450 2C9,2.51 µM (inconclusive)
same,AC50,Cytochrome P450 2C19; read-out: AC50,31.6 µM (inconclusive)
c1ccc(-c2ccccn2)nc1,AC50,Cytochrome P450 1A2,25.1 µM (inconclusive)
NCCC(=O)NCCc1c[nH]cn1 [CARCININE],AC50,Cytochrome P450 2D6,31.6 µM (inconclusive) and 10 µM (inconclusive)
same,AC50,Cytochrome P450 2C19,inconclusive
CC(=O)Oc1ccccc1C(=O)Oc1ccccc1C(=O)O [DIPLOSALSALATE],AC50,Cytochrome P450 2C9,15.8 µM (inconclusive)
same,AC50,Cytochrome P450 1A2,12.6 µM (inconclusive)

# Reference: ChEMBL document CHEMBL1201862, “PubChem BioAssay data set” (2004)
